# According to patent US20250289827A1, “MORPHIC FORMS OF A MUTANT BRAF DEGRADER AND METHODS OF MANUFACTURE THEREOF” (C4 THERAPEUTICS, INC., priority 2022, published 2025):
# Columns and labels:
# ERK phosphorylation = experiment: Inhibition of ERK phosphorylation in A375 cells; format: cell-based; conditions: Homo sapiens, A-375, 24 hr
# [1] = Wet granulation simulation experiments; format: physicochemical
# Method: Water or ethanol was added drop wise to about 20 mg of Compound 1 Form B until the sample was wetted sufficiently. Wet sample was ground gently with in a mortar and a pestle. Post granulation sample was dried under ambient condition for 10 min. Potential form change and degree of crystallinity were evaluated by XRPD.
# [2] = Solubility in aqueous pH buffers and bio-relevant fluids at 37° C.; format: physicochemical; conditions: for Solubility 2 h / Solubility 24 h: LOQ: 1.5 μg/mL; for solubility at 2 h / solubility at 24 h: thermodynamic from solid
# Method: Solubility of the Form B and sodium salt Form F was measured in 7 aqueous pH buffers and bio-relevant fluids including pH 1.2 HCl solution (0.2N), pH 4.5 acetate buffer (50 mM), pH 6.8 phosphate buffer (50 mM), pH 2.0 SGF, pH 6.5 FaSSIF-v1, pH 5.0 FeSSIF-v1 and water at 37° C. for 2 h and 24 h, respectively.
# Accurate 20 mg of the Form B was weighed into a 20 mL glass vial. Then, 10 mL of solubility medium was added. The sodium salt Form F amount used was equivalent to 20 mg anhydrous form. Obtained suspensions were stirred at 37° C. at 400 rpm and sampled at 2 hours and at 24 hours, respectively. The samples were centrifuged at 37° C. at 4,000 rpm for 4 min. Supernatants were analyzed by HPLC and pH meter for solubility and pH value, respectively. Residual solids (wet cakes) from the 24 hours samples were also characterized by XRPD to determine physical form.
# [3] = Stability study for Compound 1 Form A (storage conditions); format: physicochemical
# [4] = Crystallization by vapor diffusion; format: physicochemical
# Method: About 50 mg of Compound 1 Form A was dissolved in the minimal amount of selected solvents at ambient temperature (about 20-25° C.). Obtained solutions were filtered through a 0.45 μm syringe membrane filter. […] Then these 8 mL lid less vials were placed to 40 mL glass vials. To the 40 mL vials were added anti-solvents. Then these 40 mL vials were capped tightly and placed at ambient condition for up to 21 days. Precipitates were collected by centrifugation filtration through a 0.45 μm nylon membrane filter at 14,000 rpm. Solid parts (wet cakes) were investigated by XRPD.
# [5] = Crystallization by addition of anti-solvent; format: physicochemical
# Method: About 50 mg of Compound 1 Form A was dissolved in the minimal amount of selected good solvents at ambient temperature (about 20-25° C.). Obtained solutions were filtered through a 0.45 μm syringe membrane filter. […] Precipitates were collected by centrifugation filtration through a 0.45 μm nylon membrane filter at 14,000 rpm. Solid parts (wet cakes) were investigated by XRPD.
# [6] = Crystallization by heat-cool DSC; format: physicochemical; conditions: for Thermal events: Melting Tonset / Thermal events: enthalpy: heated to 185° C.; for Thermal events: Delta Cp / Thermal events: Tg: reheated to 250° C.
# From the text: Polymorphic behavior of Compound 1 Form A was investigated by two different heat-cool DSC cycles. A Tzero pan and a Tzero hermetic lid with a pin hole were used for this experiment. No new crystalline form was obtained by heat-cool DSC.
# [7] = pH 4.5 acetate buffer (50 mM), 37° C.
# [8] = pH 6.8 phosphate buffer (50 mM), 37° C.
# [9] = simulated gastric fluid, SGF, pH 2.0, 37° C.
# [10] = simulated gastric fluid, pH 1.2 HCl solution (0.2N), 37° C.
# [11] = 25° C. ± 2° C./60% RH ± 5% RH, 3 M
# [12] = 25° C. ± 2° C./60% RH ± 5% RH, 6 M
# [13] = 40° C. ± 2° C./75% RH ± 5% RH, 3 M
# [14] = 40° C. ± 2° C./75% RH ± 5% RH, 6 M
# [15] = Acetone (3) / anti-solvent Heptane (2) mL
# [16] = Cycle 1 (cooling at 20° C./min)
structure (smiles),measurement,setting,value
"CCN(C)S(=O)(=O)Nc1ccc(F)c(Oc2ccc3ncn([C@H]4COC5(CCN(C(=O)CC6(O)CCN(c7cc8c(cc7F)c(N7CCC(=O)NC7=O)nn8C)CC6)CC5)C4)c(=O)c3c2)c1C#N [Compound 1, (3R)-3-[6-[2-cyano-3-[[ethyl(methyl)sulfamoyl]amino]-6-fluorophenoxy]-4-oxoquinazolin-3-yl]-8-[2-[1-[3-(2,4-dioxo-1,3-diazinan-1-yl)-5-fluoro-1-methylindazol-6-yl]-4-hydroxypiperidin-4-yl]acetyl]-1-oxa-8-azaspiro[4.5]decane]",IC50,ERK phosphorylation,11 nM
CCN(C)S(=O)(=O)Nc1ccc(F)c(Oc2ccc3ncn([C@H]4COC5(CCN(C(=O)CC6(O)CCN(c7cc8c(cc7F)c(N7CCC(=O)NC7=O)nn8C)CC6)CC5)C4)c(=O)c3c2)c1C#N [Compound 1 Form B],XRPD after wet granulation,[1]; granulation solvent Ethanol,Form B; no crystallinity decrease.
same,XRPD after wet granulation,[1]; granulation solvent Water,Form B; no crystallinity decrease.
same,Crystallinity change after wet granulation,[1]; in the presence of water or ethanol,no changes in crystallinity
same,pH of supernatant 24 h,"[2]; FaSSIF-v1, pH 6.5, 37° C.",pH = 6.5
same,Solubility 2 h,"[2]; FaSSIF-v1, pH 6.5, 37° C.",<LOQ
same,Solubility 24 h,"[2]; FaSSIF-v1, pH 6.5, 37° C.",<LOQ
same,pH of supernatant 24 h,"[2]; FeSSIF-v1, pH 5.0, 37° C.",(pH = 5.0)
same,pH of supernatant 24 h,"[2]; SGF, pH 2.0, 37° C.",(pH = 2.1)
same,pH of supernatant 24 h,"[2]; Water, 37° C.",(pH = 7.0)
same,Solubility 2 h,"[2]; Water, 37° C.",<LOQ
same,pH range of morphic form stability in aqueous media,[2]; aqueous media,1.2 to 7.0
same,pH dependence of solubility,"[2]; aqueous media, 37° C.",pH dependent solubility
same,pH of supernatant 24 h,"[2]; pH 1.2 HCl solution (0.2N), 37° C.",(pH = 0.9)
same,pH of supernatant 24 h,[2]; [7],(pH = 4.5)
same,Solubility 2 h,[2]; [7],<LOQ
same,Solubility 24 h,[2]; [7],<LOQ
same,pH of supernatant 24 h,[2]; [8],(pH = 6.8)
same,Solubility 2 h,[2]; [8],<LOQ
same,Solubility 24 h,[2]; [8],<LOQ
same,Form change after solubility test,"[2]; residual solids, 24 hours, XRPD",no form change
same,solubility at 2 h,[2]; [9],3.8 µg/mL
same,solubility at 24 h,[2]; [9],5.2 µg/mL
same,solubility at 2 h,[2]; [10],11.7 µg/mL
same,solubility at 24 h,[2]; [10],28 µg/mL
same,solubility at 2 h,"[2]; FeSSIF-v1, pH 5.0, 37° C.",4.8 µg/mL
same,solubility at 24 h,"[2]; FeSSIF-v1, pH 5.0, 37° C.",6.7 µg/mL
same,solubility at 24 h,"[2]; Water, 37° C.",4.6 µg/mL
CCN(C)S(=O)(=O)Nc1ccc(F)c(Oc2ccc3ncn([C@H]4COC5(CCN(C(=O)CC6(O)CCN(c7cc8c(cc7F)c(N7CCC(=O)NC7=O)nn8C)CC6)CC5)C4)c(=O)c3c2)c1C#N [Compound 1 Form A],Appearance,"[3]; 5 ± 3° C., 6 M",white solid
same,Assay by UPLC (% w/w),"[3]; 5 ± 3° C., 6 M",92.0% w/w
same,Chiral purity by HPLC (% area),"[3]; 5 ± 3° C., 6 M",99.2% area
same,"Related Substances by UPLC (% area), Total Impurities","[3]; 5 ± 3° C., 6 M",2.8% area
same,Water Content by KF (% w/w),"[3]; 5 ± 3° C., 6 M",4.7% w/w
same,XRPD,"[3]; 5 ± 3° C., 6 M",Form A
same,"Stability study outcome (appearance, water content, chiral purity, assay, related substance)","[3]; 5 ± 3° C., 25° C./60% RH, 30° C./65% RH, 40° C./75% RH",meet the acceptance criteria
same,Assay by UPLC (% w/w),[3]; [11],93.3% w/w
same,Chiral purity by HPLC (% area),[3]; [11],99.2% area
same,"Related Substances, UPLC (% area), Total Impurities",[3]; [11],2.6% area
same,Water Content by KF (% w/w),[3]; [11],3.6% w/w
same,XRPD,[3]; [11],Form A
same,Assay by UPLC (% w/w),[3]; [12],92.9% w/w
same,Chiral purity by HPLC (% area),[3]; [12],99.2% area
same,"Related Substances, UPLC (% area), Total Impurities",[3]; [12],2.9% area
same,Water Content by KF (% w/w),[3]; [12],4.2% w/w
same,XRPD,[3]; [12],Form A
same,Appearance,"[3]; 30 ± 2° C./65 ± 5% RH, 6 M",white solid
same,Assay by UPLC (% w/w),"[3]; 30 ± 2° C./65 ± 5% RH, 6 M",92.4% w/w
same,Chiral purity by HPLC (% area),"[3]; 30 ± 2° C./65 ± 5% RH, 6 M",99.2% area
same,"Related Substances, UPLC (% area), Total Impurities","[3]; 30 ± 2° C./65 ± 5% RH, 6 M",3.0% area
same,Water Content by KF (% w/w),"[3]; 30 ± 2° C./65 ± 5% RH, 6 M",3.8% w/w
same,XRPD,"[3]; 30 ± 2° C./65 ± 5% RH, 6 M",Form A
same,Assay by UPLC (% w/w),[3]; [13],92.2% w/w
same,Chiral purity by HPLC (% area),[3]; [13],99.2% area
same,"Related Substances, UPLC (% area), Total Impurities",[3]; [13],2.7% area
same,Water Content by KF (% w/w),[3]; [13],3.9% w/w
same,XRPD,[3]; [13],Form A
same,Assay by UPLC (% w/w),[3]; [14],92.5% w/w
same,Chiral purity by HPLC (% area),[3]; [14],99.2% area
same,"Related Substances, UPLC (% area), Total Impurities",[3]; [14],3.3% area
same,Water Content by KF (% w/w),[3]; [14],4.5% w/w
same,XRPD,[3]; [14],Form A
same,Appearance,[3]; Initial,white solid
same,Assay by UPLC (% w/w),[3]; Initial,97.3% w/w
same,Chiral purity by HPLC (% area),[3]; Initial,99.2% area
same,"Related Substances by UPLC (% area), Total Impurities",[3]; Initial,2.6% area
same,Water Content by KF (% w/w),[3]; Initial,0.59% w/w
same,XRPD,[3]; Initial,Form A
same,Water content trend,[3]; each stability condition,increased overtime
same,Results,[4]; 2-MeTHF (8.0) / MTBE (32.0) mL,Few solids
same,Results,[4]; Acetone (2.5) / MTBE (10.0) mL,Oil material
same,Results,[4]; Acetonitrile (3.0) / MTBE (12.0) mL,Oil material
same,Results,[4]; DMSO (0.2) / Ethanol (0.8) mL,Oil material
same,Results (After 2 hours),"[5]; 1,4-Dioxane (0.1) / anti-solvent Water (0.2) mL",Sticky material
same,Results (After 2 hours),[5]; [15],Low crystallinity
same,XRPD,[5]; [15],Form A
same,Results (After 2 hours),[5]; DCM (0.2) / anti-solvent Heptane (0.2) mL,Sticky material
same,Results (After 2 hours),[5]; THF (0.2) / anti-solvent Water (0.2) mL,Oil material
same,Thermal events: Melting Tonset,[6]; [16],"Tonset 167.7° C., enthalpy about"
same,Thermal events: enthalpy,[6]; [16],~16 J/g
same,Thermal events: Delta Cp,[6]; [16],Delta Cp 0.3 J(g. ° C.)
same,Thermal events: Tg,[6]; [16],"Heated to 250° C.: Tg 149.8° C.,"
same,Thermal events: Melting Tonset,[6]; Cycle 2 (cooling at 2° C./min),"Tonset 167.7° C., enthalpy about"
same,Thermal events: enthalpy,[6]; Cycle 2 (cooling at 2° C./min),~17 J/g
same,Thermal events: Delta Cp,[6]; Cycle 2 (cooling at 2° C./min),Delta Cp 0.2 J(g. ° C.)
same,Thermal events: Tg,[6]; Cycle 2 (cooling at 2° C./min),"Heated to 250° C.: Tg 145.9° C.,"
